Reference: patent publication US20020137929A1, “1 - (3-heterocyclylphenyl) isothiourea, -isourea, -guanidine and -amidine herbicidal agents” (Intellectual Property Department, BASF Aktiengesellschaft, priority 1998, published 2002)

Key:
[1] = tested on: ABUTH (Velvetleaf); assay: Postemergence herbicidal evaluation; assay type: in vivo, Abutilon theophrasti; conditions: for ABUTH herbicidal rating: postemergence
How it was run: (§1)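 ~2-wk seedlings; postemergence spray, 40 psi; vehicle 1:1 acetone:water + 0.5% Tween 20; rate ≈0.0156–0.500 kg/ha; greenhouse hold; scored 4–5 wk after treatment, 0–9 scale vs control; repeat tests averaged.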

[2] = tested on: GALAP (Galium); assay: Postemergence herbicidal evaluation; assay type: in vivo, Galium aparine; conditions: for GALAP herbicidal rating: postemergence
How it was run: as §1

[3] = tested on: ECHCG (Barnyardgrass); assay: Postemergence herbicidal evaluation; assay type: in vivo, Echinochloa crus-galli; conditions: for ECHCG herbicidal rating: postemergence
How it was run: as §1

[4] = tested on: SETVI (Foxtail, Green); assay: Postemergence herbicidal evaluation; assay type: in vivo, Setaria viridis; conditions: for SETVI herbicidal rating: postemergence
How it was run: as §1

[5] = tested on: ORYSAT (Rice, Tebonnet); assay: Postemergence herbicidal evaluation; assay type: in vivo, Oryza sativa, (L.) Tebonnet; conditions: for ORYSAT herbicidal rating: postemergence
How it was run: as §1

[6] = tested on: IPOHE (Morningglory, Ivyleaf); assay: Preemergence herbicidal evaluation; assay type: in vivo, Ipomoea hederacea; conditions: rated 4-5 weeks after treatment
How it was run: (§2)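 Visual 0-9 rating vs control (stand, vigor, malformation, size, chlorosis, overall appearance), scored 4-5 wk after spraying. Seeded soil cups were treated preemergence with compound in aqueous acetone, ~0.0156-0.500 kg/ha equivalent.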

[7] = tested on: TRZAWR (Wheat, Winter, cv Riband); assay: Preemergence herbicidal evaluation; assay type: in vivo, Triticum aestivum; conditions: rated 4-5 weeks after treatment
How it was run: as §2

[8] = tested on: ZEAMX (Corn, Field); assay: Preemergence herbicidal evaluation; assay type: in vivo, Zea mays; conditions: rated 4-5 weeks after treatment
How it was run: as §2

[9] = tested on: ECHORC (Watergrass (Calif.)); assay: Preemergence weed control under flooded paddy conditions; assay type: in vivo, Echinochloa oryzoides; conditions: rated 3-4 weeks after treatment
How it was run: (§3)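 Ratings on a 0-9 visual scale cover stand, vigor, malformation, size, chlorosis and overall appearance relative to a control, taken three to four weeks post-treatment. Application was into flood water over freshly sown silt loam at roughly 0.0313 to 0.500 kg/ha.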

[10] = tested on: CYPIR (Rice Flatsedge); assay: as above; assay type: in vivo, Cyperus iria; conditions: rated 3-4 weeks after treatment
How it was run: as §3

[11] = tested on: MOOVA (Monochoria); assay: as above; assay type: in vivo, Monochoria vaginalis; conditions: rated 3-4 weeks after treatment
How it was run: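 Silt loam, seeds in top 0.5 cm; flood held 1.5-3 cm; test cpd as acetone/water 50/50 into flood water, ~0.0313-0.500 kg/ha a.i.; greenhouse 3-4 wk; visual 0-9 score vs control.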

[12] = tested on: CYPIR (Rice Flatsedge); assay: Postemergence weed control under flooded paddy conditions; assay type: in vivo, Cyperus iria; conditions: postemergence weeds, 3-4 weeks after treatment
How it was run: (§4)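 Flood-water application, about 0.0313–0.500 kg/ha a.i. in aqueous/acetone 50/50 v/v; water depth 1.5–3 cm throughout. Weeds 3–5 cm, rice 1.5–2.5 leaf. Greenhouse; 0–9 visual rating vs control at 3–4 wk.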

[13] = tested on: CYPSE (Flatsedge); assay: as above; assay type: in vivo, Cyperus serotinus; conditions: postemergence weeds, 3-4 weeks after treatment
How it was run: as §4

[14] = tested on: SAGPY (Arrowhead (Pygmaea)); assay: as above; assay type: in vivo, Sagittaria pygmaea; conditions: postemergence weeds, 3-4 weeks after treatment
How it was run: as §4

CCOC(=O)CN1C(=O)C(CC)SC1=Nc1cc(-n2c(=O)cc(C(F)(F)F)n(C)c2=O)c(F)cc1Cl (stereo not shown) [Compound 13, Ethyl 2-{{2-chloro-5-[3,6-dihydro-3-methyl-2,6-dioxo-4-(trifluoromethyl)-1(2H)-pyrimidinyl]-4-fluorophenyl}imino}-5-ethyl-4-oxo-3-thiazolidineacetate]
ABUTH herbicidal rating ([1]; rate 0.0156 kg/ha): 9.0
ABUTH herbicidal rating ([1]; rate 0.0313 kg/ha): 9.0
ABUTH herbicidal rating ([1]; rate 0.0625 kg/ha): 9.0
ABUTH herbicidal rating ([1]; rate 0.1250 kg/ha): 9.0
GALAP herbicidal rating ([2]; rate 0.0156 kg/ha): 3.0
GALAP herbicidal rating ([2]; rate 0.0313 kg/ha): 3.0
GALAP herbicidal rating ([2]; rate 0.0625 kg/ha): 5.0
GALAP herbicidal rating ([2]; rate 0.1250 kg/ha): 5.0
ECHCG herbicidal rating ([3]; rate 0.0156 kg/ha): 2.0
ECHCG herbicidal rating ([3]; rate 0.0313 kg/ha): 2.0
ECHCG herbicidal rating ([3]; rate 0.0625 kg/ha): 3.0
ECHCG herbicidal rating ([3]; rate 0.1250 kg/ha): 7.0
SETVI herbicidal rating ([4]; rate 0.0156 kg/ha): 0.0
SETVI herbicidal rating ([4]; rate 0.0313 kg/ha): 4.0
SETVI herbicidal rating ([4]; rate 0.0625 kg/ha): 4.0
SETVI herbicidal rating ([4]; rate 0.1250 kg/ha): 9.0
ORYSAT herbicidal rating ([5]; rate 0.0156 kg/ha): 1.5
ORYSAT herbicidal rating ([5]; rate 0.0313 kg/ha): 2.5
ORYSAT herbicidal rating ([5]; rate 0.0625 kg/ha): 2.5
ORYSAT herbicidal rating ([5]; rate 0.1250 kg/ha): 3.0
IPOHE preemergence herbicidal rating ([6]; rate 0.0156 kg/ha): 2.5
IPOHE preemergence herbicidal rating ([6]; rate 0.0313 kg/ha): 3.5
IPOHE preemergence herbicidal rating ([6]; rate 0.0625 kg/ha): 9.0
IPOHE preemergence herbicidal rating ([6]; rate 0.1250 kg/ha): 8.0
IPOHE preemergence herbicidal rating ([6]; rate 0.2500 kg/ha): 9.0
TRZAWR preemergence herbicidal rating ([7]; rate 0.0313 kg/ha): 1.0
TRZAWR preemergence herbicidal rating ([7]; rate 0.0625 kg/ha): 1.0
TRZAWR preemergence herbicidal rating ([7]; rate 0.1250 kg/ha): 4.0
TRZAWR preemergence herbicidal rating ([7]; rate 0.2500 kg/ha): 6.0
ZEAMX preemergence herbicidal rating ([8]; rate 0.0156 kg/ha): 0.0
ZEAMX preemergence herbicidal rating ([8]; rate 0.0313 kg/ha): 2.0
ZEAMX preemergence herbicidal rating ([8]; rate 0.0625 kg/ha): 4.0
ZEAMX preemergence herbicidal rating ([8]; rate 0.1250 kg/ha): 5.0
ZEAMX preemergence herbicidal rating ([8]; rate 0.2500 kg/ha): 7.0
Herbicidal rating ECHORC ([9]; 0.0156 kg/ha): 3.5
Herbicidal rating ECHORC ([9]; 0.0313 kg/ha): 5.5
Herbicidal rating ECHORC ([9]; 0.0625 kg/ha): 7.0
Herbicidal rating ECHORC ([9]; 0.1250 kg/ha): 8.0
Herbicidal rating ECHORC ([9]; 0.2500 kg/ha): 9.0
Herbicidal rating CYPIR ([10]; 0.0156 kg/ha): 0.0
Herbicidal rating CYPIR ([10]; 0.0313 kg/ha): 0.0
Herbicidal rating CYPIR ([10]; 0.0625 kg/ha): 0.0
Herbicidal rating CYPIR ([10]; 0.1250 kg/ha): 0.5
Herbicidal rating CYPIR ([10]; 0.2500 kg/ha): 1.0
Herbicidal rating MOOVA ([11]; 0.0156 kg/ha): 7.5
Herbicidal rating MOOVA ([11]; 0.0313 kg/ha): 9.0
Herbicidal rating MOOVA ([11]; 0.0625 kg/ha): 9.0
Herbicidal rating MOOVA ([11]; 0.1250 kg/ha): 9.0
Herbicidal rating MOOVA ([11]; 0.2500 kg/ha): 9.0
Herbicidal rating CYPIR ([12]; rate 0.0313 kg/ha): 0.0
Herbicidal rating CYPIR ([12]; rate 0.0625 kg/ha): 0.0
Herbicidal rating CYPIR ([12]; rate 0.1250 kg/ha): 0.5
Herbicidal rating CYPIR ([12]; rate 0.2500 kg/ha): 1.0
Herbicidal rating CYPSE ([13]; rate 0.0313 kg/ha): 0.0
Herbicidal rating CYPSE ([13]; rate 0.0625 kg/ha): 0.0
Herbicidal rating CYPSE ([13]; rate 0.1250 kg/ha): 0.0
Herbicidal rating CYPSE ([13]; rate 0.2500 kg/ha): 0.0
Herbicidal rating SAGPY ([14]; rate 0.0313 kg/ha): 0.0
Herbicidal rating SAGPY ([14]; rate 0.0625 kg/ha): 0.0
Herbicidal rating SAGPY ([14]; rate 0.1250 kg/ha): 0.0
Herbicidal rating SAGPY ([14]; rate 0.2500 kg/ha): 0.0

Cn1c(C(F)(F)F)cc(=O)n(-c2cc(/N=C3/SCC(=O)N3CC(=O)O)c(Cl)cc2F)c1=O [Compound 52, 2-{{2-Chloro-5-[3,6-dihydro-3-methyl-2,6-dioxo-4-(trifluoromethyl)-1(2H)-pyrimidinyl]-4-fluoro-phenyl}imino}-4-oxo-3-thiazolidineacetic acid]
Postemergence herbicidal rating ABUTH ([1]; Rate 0.0158 kg/ha): 1.0
Postemergence herbicidal rating ABUTH ([1]; Rate 0.0315 kg/ha): 9.0
Postemergence herbicidal rating ABUTH ([1]; Rate 0.0630 kg/ha): 9.0
Postemergence herbicidal rating GALAP ([2]; Rate 0.0158 kg/ha): 1.0
Postemergence herbicidal rating GALAP ([2]; Rate 0.0315 kg/ha): 4.0
Postemergence herbicidal rating GALAP ([2]; Rate 0.0630 kg/ha): 5.0
Postemergence herbicidal rating ECHCG ([3]; Rate 0.0158 kg/ha): 1.0
Postemergence herbicidal rating ECHCG ([3]; Rate 0.0315 kg/ha): 1.0
Postemergence herbicidal rating ECHCG ([3]; Rate 0.0630 kg/ha): 4.0
Postemergence herbicidal rating SETVI ([4]; Rate 0.0158 kg/ha): 1.0
Postemergence herbicidal rating SETVI ([4]; Rate 0.0315 kg/ha): 3.0
Postemergence herbicidal rating SETVI ([4]; Rate 0.0630 kg/ha): 7.0
Postemergence herbicidal rating ORYSAT ([5]; Rate 0.0158 kg/ha): 1.0
Postemergence herbicidal rating ORYSAT ([5]; Rate 0.0315 kg/ha): 1.0
Postemergence herbicidal rating ORYSAT ([5]; Rate 0.0630 kg/ha): 2.0
Preemergence herbicidal rating IPOHE ([6]; rate 0.0313 kg/ha): 0.0
Preemergence herbicidal rating IPOHE ([6]; rate 0.0625 kg/ha): 1.0
Preemergence herbicidal rating IPOHE ([6]; rate 0.1250 kg/ha): 2.0
Preemergence herbicidal rating IPOHE ([6]; rate 0.2500 kg/ha): 9.0
Preemergence herbicidal rating TRZAWR ([7]; rate 0.0313 kg/ha): 0.0
Preemergence herbicidal rating TRZAWR ([7]; rate 0.0625 kg/ha): 0.0
Preemergence herbicidal rating TRZAWR ([7]; rate 0.1250 kg/ha): 2.0
Preemergence herbicidal rating TRZAWR ([7]; rate 0.2500 kg/ha): 5.0
Preemergence herbicidal rating ZEAMX ([8]; rate 0.0313 kg/ha): 0.0
Preemergence herbicidal rating ZEAMX ([8]; rate 0.0625 kg/ha): 0.0
Preemergence herbicidal rating ZEAMX ([8]; rate 0.1250 kg/ha): 1.0
Preemergence herbicidal rating ZEAMX ([8]; rate 0.2500 kg/ha): 3.0
Herbicidal rating ECHORC ([9]; 0.2500 kg/ha): 0.0
Herbicidal rating CYPIR ([10]; 0.2500 kg/ha): 2.0
Herbicidal rating MOOVA ([11]; 0.2500 kg/ha): 4.0
Herbicidal rating CYPIR ([12]; rate 0.2500 kg/ha): 2.0
Herbicidal rating CYPSE ([13]; rate 0.2500 kg/ha): 0.0
Herbicidal rating SAGPY ([14]; rate 0.2500 kg/ha): 0.0
